Data on six molecules can be found in patent US4440770A, “Diuretic, hypotensive and antiedemic quinoline oximes” (Mochida Seiyaku Kabushiki Kaisha, priority 1980, dated 1984).

Data set [1] can be described thus: Properties of respective derivatives (solubility). Format: physicochemical.
A further data set concerns rats. In words: Diuretic effect in rats. It counts as in vivo, Wister strain male rats. Conditions: Rattus norvegicus, po, 5 h, urine volume up to 5 hours, % of control; for response vs control in vivo at 50 mg/kg: dosage 50 mg/kg; for response vs control in vivo at 10 mg/kg: dosage 10 mg/kg; for response vs control in vivo at 20 mg/kg: dosage 20 mg/kg. As for the experimental part:
Wister strain male rats weighing about 200 g were starved overnight and each compound of this invention suspended in 25 ml/kg of physiological saline were administered orally to the 5 animals in each group, and the diuretic effect up to 5 hours after the administration was measured. The diuretic effect is expressed as the average urine volume (%) of the treated group divided by that of the control group.

Data set [2] has as its system Carrageenin-Induced Foot Edema. In words: Inhibition for carrageenin-induced foot edema in rats. Format: in vivo, Wister strain male rats. To be noted: Rattus norvegicus, po, 1 hour before carrageenin, paw volume 3 hours after, probit method, read-out: ED30 (dosage for 30% inhibition of edema). The procedure:
10 Wister strain male rats weighing about 120 g were used in each group. Each compound of this invention was suspended in a 5% aqueous arabic gum solution and administered orally to the animals. One hour after the administration, 0.1 ml of a 1% solution of carrageenin in physiological saline as a phlogistic agent was subcutaneously injected into the right hind paw of the rats which had been shaven previously. The volume of the right hind paw was measured before the administration of the phlogistic agent and 3 hours after the administration. The intensity of edema expressed as percent increase in the foot volume was calculated from the […] (1) and the percent inhibition of edema was calculated from the equation (2). [formula]
The effective dosage of each compound for inhibiting edema was expressed as ED30 (mg/kg) by calculating the dosage for 30% inhibition from the percent inhibition of edema according to the probit method.

Data set [3] is described as follows: Acute oral toxicity in mice. To be noted: mouse, in vivo, mortality 7 days after administration. The procedure: 10 ddY Strain male mice weighing about 20 g were used in each group. Each compound of this invention was suspended in a 5% aqueous gum arabic solution and administered orally. The mortality rate (%) was determined from the number of dead animals 7 days after the administration, and the dosage corresponding to 50% mortality was calculated and expressed as LD50 (mg/kg).

Consider `CC(C)C(=O)N1CCC(=NO)c2cc(Br)ccc21` [XVII, 6-Bromo-4-oximino-1-isobutyryl-1,2,3,4-tetrahydroquinoline], for which, in data set [1], the “Solubility in ethanol and dichloromethane” value is “soluble”; the “Solubility in water and hexane” value is “Sparingly soluble”. In the data set with rats, this molecule had a response vs control in vivo at 50 mg/kg of 173%. In data set [2], the ED30 came out at 102 mg/kg. The median lethal dose (LD50) at 168 h in data set [3] is over 5000 mg/kg.
Turning to `O=C(C=Cc1ccccc1)N1CCC(=NO)c2cc(Br)ccc21` [XVIII, 6-Bromo-4-oximino-1-cinnamoyl-1,2,3,4-tetrahydroquinoline], in data set [1], the “Solubility in ethanol and dichloromethane” value is given as “soluble”; the “Solubility in water and hexane” value was “Sparingly soluble”. The response vs control in vivo at 50 mg/kg with rats came to 203%. In addition, the ED30 in data set [2] was found to be 133 mg/kg. The molecule also came in with an LD50 at 168 h in data set [3] of over 5000 mg/kg.
For `CNC(=O)N1CCC(=NO)c2cc(Br)ccc21` [XX, 6-Bromo-4-oximino-1-methylcarbamoyl-1,2,3,4-tetrahydroquinoline], in that order: “soluble”, “Sparingly soluble”, 197%, 95 mg/kg and over 5000 mg/kg.
For `CN(C)C(=O)N1CCC(=NO)c2cc(F)ccc21` [XXI, 6-Fluoro-4-oximino-1-dimethylcarbamoyl-1,2,3,4-tetrahydroquinoline], in data set [1], the “Solubility in ethanol and dichloromethane” value is listed as “soluble”; the “Solubility in water and hexane” value is given as “Sparingly soluble”. In the data set with rats, this molecule displayed a response vs control in vivo at 10 mg/kg of 128% and a response vs control in vivo at 20 mg/kg of 209%. Moreover, the ED30 in data set [2] came to 141 mg/kg. The LD50 at 168 h in data set [3] is over 5000 mg/kg.
Turning to `CN(C)C(=O)N1CCC(=NO)c2cc(Cl)ccc21` [XXII, 6-Chloro-4-oximino-1-dimethylcarbamoyl-1,2,3,4-tetrahydroquinoline], in data set [1], the “Solubility in ethanol and dichloromethane” value is on record as “soluble”; the “Solubility in water and hexane” value is listed as “Sparingly soluble”. For the same molecule, in the data set with rats, the response vs control in vivo at 10 mg/kg amounted to 198% and the response vs control in vivo at 20 mg/kg stood at 263%. Moreover, the ED30 in data set [2] was 34 mg/kg. This molecule returned an LD50 at 168 h in data set [3] of over 5000 mg/kg.
As to `CN(C)C(=O)N1CCC(=NO)c2cc(Br)ccc21` [XXIII, 6-Bromo-4-oximino-1-dimethylcarbamoyl-1,2,3,4-tetrahydroquinoline], in data set [1], the “Solubility in ethanol and dichloromethane” value is reported as “soluble”; the “Solubility in water and hexane” value is reported as “Sparingly soluble”. This molecule showed a response vs control in vivo at 50 mg/kg in the data set on rats of 200%. In data set [2], the ED30 was 51 mg/kg. For the same molecule, the LD50 at 168 h in data set [3] was over 5000 mg/kg.

As a reminder, the LD50 is the dose at which mortality reaches 50%.
